# Measured values taken from patent publication US20250057910A1, “Application of Polypeptide in Preparation of Product for Preventing or Treating Skin Injury Diseases” (Sichuan Gooddoctor Panxi Pharmaceutical Co., Ltd., priority 2021, published 2025).
# Ends that are not written are not given here.
# Experiments:
# [1] = test system: Wild-type AB-line zebrafish; assay: Tissue regeneration in zebrafish with caudal fin damage; format: in vivo; conditions: 250, 500 and 1000 μg/mL in water, 28° C., 3 days; vs model control; FIG. 5
# Procedure: Experimental animals: Wild-type AB-line zebrafish, raised in water for culturing fish at 28° C. (water quality: 200 mg of instant dissolving sea salt being added to every 1 L of water made by reverse osmosis, with a conductivity of 450-550 μS/cm, a pH of 6.5-8.5 and a hardness of 50-100 mg/L CaCO3), at the age of 3 days post fertilization (3 dpf). The animals were provided by the fish breeding center of Hangzhou Hunter Biotechnology Co., Ltd. with the experimental animal use license number of SYXK (Zhejiang) 2012-0171, and the breeding management complied with the requirements of international AAALAC certification (certification number: 001458).
# Experimental method: 3 dpf wild AB-line zebrafish were randomly selected, and the caudal fins of zebrafish was excised to establish a model of caudal fin damage in zebrafish. […] Treatment was performed at 28° C. for 3 days, 10 zebrafish were randomly selected in each experimental group and placed under an anatomical microscope to take photos, the data were analyzed and collected using NIS-Elements D 3.20 advanced image processing software, the regeneration areas of caudal fins of zebrafish were analyzed, and the statistical analysis results of this index were used to evaluate the efficacy of the samples of promoting tissue regeneration.
# [2] = test system: STZ-induced diabetic rats; assay: Healing of skin ulcer in streptozotocin (STZ)-induced diabetic rats; format: in vivo, rat; conditions: for Wound healing rates of diabetic rats: Mean ± SD, n = 15
# Procedure: Experimental animals: After SPF grade male healthy SD rats (weighing 180-200 g) were fed with high-fat and high-sugar diet for 2 weeks and fasted for 6 hours, each rat was rapidly injected with an STZ solution (50 mg kg^−1) intraperitoneally at one time, and 48 hours later, the random blood glucose values were >16.7 mmol/L twice, indicating the successful establishment of type II diabetic rat model. Experimental animals were purchased from Beijing Vital River Laboratory Animal Technology Co., Ltd., with the experimental animal quality certification number of SCXK (Beijing) 2017-0033, and the experimental animal use license number of SCXK (Beijing) 2017-0033.
# Experimental method: 90 diabetic rats were selected and randomly divided into 6 groups with 15 rats in each group, namely, model control group (normal saline), high-dose polypeptide group (30 μg/cm^2), medium-dose polypeptide group (10 μg/cm^2), and low-dose polypeptide group (3 μg/cm^2), GeneTime group (40 IU/cm^2, recombinant human epidermal growth factor topical solution, from Shenzhen Watsin Genetech Ltd.), and Kangfuxin Ye group (36 μL/cm^2, Kangfuxinye, from SICHUAN GOODDOCTOR PANXI PHARMACEUTICAL CO., LTD.). After each experimental rat was anesthetized by intraperitoneal injection of 2% pentobarbital sodium (0.2 mL/100 g), a 2 cm^2 full-layer skin defect wound was prepared at each of both sides of the back spine, and a rubber ring with a diameter of 2.3 cm was stitched at the outer edge of the wound. After hemostasis of the wound, local drug therapy at the wound was carried out by group. Except that the Kangfuxin Ye group was administered 2 times/day, other groups were administered once a day, with a dosed volume of 72 μL/wound each time, for 14 consecutive days. After the administration, the wound was covered with a sterile vaseline gauze (5 cm*5 cm), and bandaged with multi-layer sterile gauzes. After the wound surgery, the wound was photographed, and the wound area was recorded as the baseline value (the wound was recorded as Day0). During the administration period, the wound areas were photographed and measured 3 times a week, and the granulation tissue growth and healing of wound in each group were observed every day.
# [3] = test system: HaCaT cells (human immortalized keratinocytes); assay: Proliferation of HaCaT cells (CCK8); format: cell-based; conditions: 72 h, 1640 medium with 1% serum, FIG. 1
# Procedure: Experimental method: Human immortalized keratinocytes (HaCAT cells) were adjusted to a concentration of 1.0*10^5 to 5.0*10^5/mL for passaging, and cultured at 37° C. and 5% CO2 for 24-36 hours for the biological activity detection. The cells were digested with 0.25% pancreatin for 5 min, a 1640 whole blood medium with more than 1 times the volume of pancreatin was added to stop digestion, a cell suspension was collected and centrifuged at 1000 RPM for 3 min, the supernatant was discarded, 2 mL of 1640 whole blood medium was added to resuspend the cells, 20 uL cell suspension was taken, stained with AOPI, and then the concentration of cells in the suspension was detected with a cell counter, the cell suspension was formulated with 1640 medium with 10% serum to a concentration of 5*10^4/mL and seeded into 96-well cell culture plates with 100 μL per well, i.e. 5000 cells/well, and cultured overnight at 37° C. and 5% CO2.
# After 24 hours, the original culture medium was discarded and 100 μL of each of different concentrations of polypeptide solutions formulated with 1640 culture medium with 1% serum was added. […] The mixtures were cultured at 37° C. and 5% CO2 for 72 h, and the proliferation of the HaCaT cell line was detected by the CCK8 kit.
sequence,measurement,setting,value
PAAEPVPL [polypeptide],Zebrafish caudal fin regeneration (regeneration area),[1],significantly promoting tissue regeneration
same,Formation rate of new granulation tissues,"[2]; 3rd day after injury, low-, medium- and high-dose (3, 10, 30 μg/cm^2), vs model control, FIG. 8",promoted the growth rate of new granulation tissue compared to the model control group with significant differences
same,Wound healing rates of diabetic rats,"[2]; Day 0 (baseline), high-dose 30 μg/cm^2, topical once a day",0.00 ± 0.00%
same,Wound healing rates of diabetic rats,"[2]; Day 0 (baseline), low-dose 3 μg/cm^2, topical once a day",0.00 ± 0.00%
same,Wound healing rates of diabetic rats,"[2]; Day 0 (baseline), medium-dose 10 μg/cm^2, topical once a day",0.00 ± 0.00%
same,Wound healing rates of diabetic rats,"[2]; Day 3, high-dose 30 μg/cm^2, topical once a day",6.82 ± 19.81%
same,Wound healing rates of diabetic rats,"[2]; Day 3, low-dose 3 μg/cm^2, topical once a day",3.05 ± 8.10%
same,Wound healing rates of diabetic rats,"[2]; Day 3, medium-dose 10 μg/cm^2, topical once a day",5.04 ± 9.31%
same,Wound healing rates of diabetic rats,"[2]; Day 7, high-dose 30 μg/cm^2, topical once a day",62.62 ± 12.24%
same,Wound healing rates of diabetic rats,"[2]; Day 7, low-dose 3 μg/cm^2, topical once a day",54.67 ± 18.10%
same,Wound healing rates of diabetic rats,"[2]; Day 7, medium-dose 10 μg/cm^2, topical once a day",57.57 ± 10.49%
same,Wound healing rates of diabetic rats,"[2]; Day 10, high-dose 30 μg/cm^2, topical once a day",88.49 ± 5.17 %
same,Wound healing rates of diabetic rats,"[2]; Day 10, low-dose 3 μg/cm^2, topical once a day",84.05 ± 10.21%
same,Wound healing rates of diabetic rats,"[2]; Day 10, medium-dose 10 μg/cm^2, topical once a day",84.26 ± 9.10%
same,Wound healing rates of diabetic rats,"[2]; Day 12, high-dose 30 μg/cm^2, topical once a day",98.39 ± 2.39%
same,Wound healing rates of diabetic rats,"[2]; Day 12, low-dose 3 μg/cm^2, topical once a day",95.92 ± 5.82%
same,Wound healing rates of diabetic rats,"[2]; Day 12, medium-dose 10 μg/cm^2, topical once a day",97.77 ± 3.71%
same,Wound healing rates of diabetic rats,"[2]; Day 14, high-dose 30 μg/cm^2, topical once a day",99.85 ± 0.77%
same,Wound healing rates of diabetic rats,"[2]; Day 14, low-dose 3 μg/cm^2, topical once a day",99.46 ± 1.46%
same,Wound healing rates of diabetic rats,"[2]; Day 14, medium-dose 10 μg/cm^2, topical once a day",99.85 ± 0.84%
same,Wound healing in diabetic rats (statement in words),"[2]; high-dose 30 μg/cm^2, vs model control, Day 10",significant healing promoting effect
same,Wound healing in diabetic rats (statement in words),"[2]; low and medium doses (3 and 10 μg/cm^2), Day 10, vs model control",tendency to promote the wound healing
same,Proliferation-promoting effect on the HaCaT cell line,[3],significant effect of promoting proliferation
